pIC50: −log10 of the molar value.
Test system: LPS-induced tumor necrosis factor-α (TNF-α) production in mixed glial cells
Assay: In vitro CNS inflammation assay
Type: cell-based
Conditions: Rattus norvegicus, Glial cell, 6 h, LPS 50 ng/ml, TNF-α ELISA
Procedure: This protocol describes the procedure used to induce experimental inflammation by lipopolysacchride (LPS) in cultured CNS mixed glial cells. The anti-inflammatory effect of test compounds was evaluated against LPS-induced tumor necrosis factor-α (TNF-α) production in mixed glial cells.
The following steps were performed the day of the assay:
The mixed glial cells (7 days from initial culture) were replenished with mixed glial culture media consist of 50:50:10:1 combination of DMEM (high glucose: Invitrogen Corp), F-12 (Invitrogen Corp), 100% fetal bovine serum and 100×N-2 supplement (Invitrogen Corp). These mixed glial cells were prepared according to Park L C, Calingasan N Y, Uchida K, Zhang H, Gibson G E. (2000) “Metabolic impairment elicits brain cell type-selective changes in oxidative stress and cell death in culture.” J Neurochem 74(1):114-124 with some modification. Briefly, rat […] forebrains (1-2 day old) were isolated, triturated and plated on 96-well plates (20,000 cells per well) in mixed glial media in 5% CO2 incubator at 37° C. […]
The quantitative determination of TNF-αpresent in cell culture medium produced by mixed glial cells was performed using a solid phase sandwich enzyme linked immno-sorbent assay (ELISA) method based on the protocol and reagents provided by Biosource rat TNF-α ELISA kit (Biosource International).

## OC1CCN(Cc2onc(-c3ccc(F)cc3)c2-c2ccnc(NC3CCCCC3)n2)CC1 [I-1]
  pIC50: ≥ 6.00
